Read-outs that look alike come from different tables or passages of the source. One block for each compound: values may come before it.
How the values were obtained:
[1] = UV-vis spectra of species interconversion in phosphate buffer pH 7.0; format: physicochemical; details: 24 h in phosphate buffer pH 7.0, relative to value after 2 min incubation
Procedure: The stock solutions of the flavylium compounds were prepared in dimethyl sulfoxide (DMSO): H2O (99:1) containing 0.1M of HCl. To estimate the predominant species of the used compounds (Figure 1), 10 µL of stock solution of each compound was added to potassium phosphate buffer at pH 7.0. The UV-vis spectra were recorded immediately (Figure S1, black lines) and after 2 min (red lines). […] The spectral signatures, i.e., the observation of absorption bands in the visible and UV-vis regions, pointed out the existence of the quinoidal base and colorless hemiketal/chalcone species mixtures under non-equilibrated conditions.
Stock solutions of compounds at acid pH values (non-equilibrated (NE) in the media) and by incubation in phosphate buffer at pH 7.0 for 24 h were prepared, and their UV-vis was measured in phosphate buffer pH 7.0. As expected, the mole fraction of the quinoidal base of compounds 1 and 5 partially disappeared, leading to the formation of the respective trans-chalcone species after a 24 h incubation in phosphate buffer at pH 7.0 (Supplementary Figure S2). We monitored the spectra of compounds 1 and 5 (black and grey line, respectively) after immediate addition into phosphate buffer pH 7.0 (continuous line) or after incubation in this buffer for 24 h (dotted line). […]

[2] = target: T1, Cb5R in rat liver microsomes (Rattus norvegicus, UniProt P20070); assay: NADH: Cb5 reductase activity of rat liver microsomes; format: biochemical; details: 40 µM compound, Cb5 5 μM, NADH 150 μM
T1 construct: testing the action of compounds 1 and 5 against the Cb5R present in rat liver microsomes; from tissue; host or cells: rat liver microsomes
T1 sequence (P20070 1-301): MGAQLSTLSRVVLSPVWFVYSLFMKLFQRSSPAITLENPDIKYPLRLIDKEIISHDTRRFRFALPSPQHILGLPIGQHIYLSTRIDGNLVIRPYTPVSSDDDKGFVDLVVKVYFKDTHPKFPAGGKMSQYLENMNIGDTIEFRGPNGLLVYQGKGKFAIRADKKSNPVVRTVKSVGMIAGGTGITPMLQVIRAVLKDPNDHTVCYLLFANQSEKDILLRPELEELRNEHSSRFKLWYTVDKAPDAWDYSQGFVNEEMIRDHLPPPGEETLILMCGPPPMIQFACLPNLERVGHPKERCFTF
Procedure: We measured the inhibition of the NADH: Cb5 reductase activity with a fixed concentration of the compounds (Figure 6b) and compared the values with those of the NADH: ferricyanide reductase activity in microsomes (Figure 6a).
(§1) Livers were obtained from add livitum rats. Microsomes were prepared as previously performed, with slight differences. […] Buffer (3 mL) was used per gram of liver tissue. After homogenization, the lysate was centrifuged at 960× g for 10 min at 4 °C. The supernatant was collected and centrifuged at 9800× g for 20 min at 4 °C. Finally, the supernatant was centrifuged at 53170× g for 60 min at 4 °C. The microsomal sediment was resuspended in the same buffer and frizzed at −80 °C until use.

[3] = target: T2, Cb5R from microsomes (Rattus norvegicus, UniProt P20070); assay: NADH-dependent superoxide anion production (NADH: NBT reductase activity sensitive to SOD and CAT) of microsomes; format: biochemical; details: microsomes 5.2 µg/mL, without compound 2.3 ± 0.1; for Superoxide anion production of microsomes in presence of compound, NE form: non-equilibrated
T2 construct: testing the action of compounds 1 and 5 against the Cb5R present in rat liver microsomes; from tissue; host or cells: rat liver microsomes
T2 sequence (P20070 1-301): T1 sequence (P20070 1-301)
Procedure: Finally, we measured the effect of compounds 1 and 5 on the previously described NADH-dependent superoxide anion production of the Cb5R by quantifying the inhibitory effect of the compounds on the NADH: nitro blue tetrazolium (NBT) reductase activity of Cb5R from microsomes sensitive to superoxide dismutase (SOD) and catalase (CAT) (Figure 6c). The NADH: NBT reductase activity of Cb5R measured with microsomes (5.2 µg/mL) was 4.4 ± 0.1 µM/min.

[4] = target: T1, Cb5R in rat liver microsomes; assay: NADH: ferricyanide reductase activity in rat liver microsomes; format: biochemical; details: for inhibition at 40 µM: 40 µM compound; for IC50: microsomes 5.6 µg/mL of protein; for Maximum inhibition of NADH: ferricyanide reductase activity in microsomes, E form / Maximum inhibition of NADH: ferricyanide reductase activity in microsomes, NE form: up to 100 µM compound
Procedure: To further assess the biological relevance of the tested compounds as inhibitors of the Cb5R, we measure the inhibition dependence of the NADH: ferricyanide reductase activity in rat liver microsomes (Figure 6a). All tested compounds follow a dose-dependent effect on this activity, although the maximum inhibition achieved for them was not the same as measured with the purified recombinant enzyme.
as §1

[5] = target: NADH: ferricytochrome b5 reductase; set-up: method as in PMID 22542668; details: cited from earlier work; for IC50: read-out: IC50 against NADH: ferricytochrome b5 reductase
[6] = equilibrated, read-out: Inhibition of NADH: Cb5 reductase activity of microsomes, E form
[7] = non-equilibrated, read-out: Inhibition of NADH: Cb5 reductase activity of microsomes, NE form
[8] = equilibrated, read-out: Inhibition of NADH: ferricyanide reductase activity of microsomes, E form
[9] = non-equilibrated, read-out: Inhibition of NADH: ferricyanide reductase activity of microsomes, NE form
[10] = equilibrated, read-out: IC50, NADH: ferricyanide reductase activity of microsomes, E form

- Quinoidal base disappeared, forming the trans-chalcone [1]: ca. 40%
- inhibition at 40 µM [2, 6]: 80.6 ± 0.8%
- inhibition at 40 µM [2, 7]: 65.6 ± 2.9%
- Superoxide anion production of microsomes in presence of compound, NE form [3]: 1.4 ± 0.1 µM/min
- inhibition at 40 µM [4, 8]: 81.8 ± 2.3%
- inhibition at 40 µM [4, 9]: 71 ± 4.7%
- IC50 [4, 10]: 3.3 ± 0.4 µM
- IC50 ([4]; non-equilibrated, read-out: IC50, NADH: ferricyanide reductase activity of microsomes, NE form): 8 ± 2.2 µM
- Maximum inhibition of NADH: ferricyanide reductase activity in microsomes, E form ([4]; equilibrated): 81 ± 2%
- Maximum inhibition of NADH: ferricyanide reductase activity in microsomes, NE form ([4]; non-equilibrated): 77 ± 2%
Compound: Oc1ccc2ccc(-c3ccc(O)c(O)c3)[o+]c2c1 [Compound 5]

Compound: Oc1cc(O)c2c(c1)O[C@H](c1ccc(O)c(O)c1)[C@@H](O)C2 [catechin]
- IC50 [5]: 4.5 µM

- Quinoidal base disappeared, forming the trans-chalcone [1]: ca. 40%
- inhibition at 40 µM [2, 6]: 58.8 ± 1.5%
- inhibition at 40 µM [2, 7]: 25 ± 5.3%
- Superoxide anion production of microsomes in presence of compound, E form ([3]; equilibrated): 1.4 ± 0.1 µM/min
- Superoxide anion production of microsomes in presence of compound, NE form [3]: 1.7 ± 0.1 µM/min
- inhibition at 40 µM [4, 8]: 63.4 ± 3.6%
- inhibition at 40 µM [4, 9]: 4.6 ± 4%
- IC50 [4, 10]: 18 ± 3.8 µM
- Maximum inhibition of NADH: ferricyanide reductase activity in microsomes, E form ([4]; equilibrated): 85 ±2%
- Maximum inhibition of NADH: ferricyanide reductase activity in microsomes, NE form ([4]; non-equilibrated): 11 ±7%
Compound: Oc1ccc(-c2ccc3ccc(O)cc3[o+]2)cc1 [Compound 1]

Compound: O=c1cc(-c2ccc(O)c(O)c2)oc2cc(O)cc(O)c12 [luteolin]
- IC50 [5]: 0.11 µM

Compound: O=c1c(O)c(-c2ccc(O)c(O)c2)oc2cc(O)cc(O)c12 [quercetin]
- IC50 [5]: 1.1 µM

Compound: O=C1C[C@@H](c2ccc(O)cc2)Oc2cc(O)cc(O)c21 [Naringenin]
- Inhibition of Cb5R in vitro ([5]; in vitro studies): did not inhibit

Compound: O=c1cc(-c2ccc(O)cc2)oc2cc(O)cc(O)c12 [apigenin]
- IC50 [5]: 36 µM

Compound: Oc1cc(O)c2c(c1)O[C@H](c1ccc(O)c(O)c1)[C@H](O)C2 [epicatechin]
- IC50 [5]: 3.2 µM

Reference: publication PMC9822168, “The Use of Flavylium Salts as Dynamic Inhibitor Moieties for Human Cb5R” (Molecules, 2022)
